# Measured values from ChEMBL document CHEMBL1201861, “Genomics of Drug Sensitity in Cancer screening data, Wellcome Trust Sanger Institute”.
# What was measured:
# Test in all cases: cells
# Format in all cases: functional, cell-based, Homo sapiens
# SW756 = conditions: Homo sapiens, SW756;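 also: growth inhibition of human SW756 cells, read out with a cell viability assay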
# Description: SANGER: Inhibition of human SW756 cell growth in a cell viability assay.
# NCI-H2347 = conditions: Homo sapiens, NCI-H2347;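 also: growth inhibition of the cell line, read out with a cell viability assay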
# Description: SANGER: Inhibition of human NCI-H2347 cell growth in a cell viability assay.
# NUGC-3 = conditions: Homo sapiens, NUGC-3;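 also: growth inhibition of human NUGC-3 cells, read out with a cell viability assay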
# Description: SANGER: Inhibition of human NUGC-3 cell growth in a cell viability assay.
# RCM-1 = conditions: Homo sapiens, RCM-1;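 also: growth inhibition of the RCM-1 line, determined with a cell viability readout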
# Description: SANGER: Inhibition of human RCM-1 cell growth in a cell viability assay.
# NCI-H522 = conditions: Homo sapiens, NCI-H522;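 also: cell viability assay measuring growth inhibition of human NCI-H522 cells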
# Description: SANGER: Inhibition of human NCI-H522 cell growth in a cell viability assay.
# RPMI-7951 = conditions: Homo sapiens, RPMI-7951
# Description: SANGER: Inhibition of human RPMI-7951 cell growth in a cell viability assay.
# SW1573 = conditions: Homo sapiens, SW1573;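 also: growth inhibition of SW1573 cells, read out with a cell viability assay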
# Description: SANGER: Inhibition of human SW1573 cell growth in a cell viability assay.
# NCI-H520 = conditions: Homo sapiens, NCI-H520;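 also: growth inhibition of NCI-H520 cells, measured by a cell viability assay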
# Description: SANGER: Inhibition of human NCI-H520 cell growth in a cell viability assay.
# PFSK-1 = conditions: Homo sapiens, PFSK-1;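 also: cell viability assay measuring how strongly compounds suppress growth of human PFSK-1 cells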
# Description: SANGER: Inhibition of human PFSK-1 cell growth in a cell viability assay.
# HCC1937 = conditions: Homo sapiens, HCC1937;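 also: growth inhibition measured with a cell viability read-out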
# Description: SANGER: Inhibition of human HCC1937 cell growth in a cell viability assay.
# A 172 = conditions: Homo sapiens, A 172;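 also: growth inhibition of A172 cells, measured with a cell viability readout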
# Description: SANGER: Inhibition of human A172 cell growth in a cell viability assay.
# SCC-9 = conditions: Homo sapiens, SCC-9;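 also: Read-out is a cell viability assay, with values giving inhibition of cell growth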
# Description: SANGER: Inhibition of human SCC-9 cell growth in a cell viability assay.
# AN3-CA = conditions: Homo sapiens, AN3-CA;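 also: growth inhibition of human AN3-CA cells measured by a cell viability assay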
# Description: SANGER: Inhibition of human AN3-CA cell growth in a cell viability assay.
# MCF7 = conditions: Homo sapiens, MCF7;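 also: growth inhibition of human MCF7 cells, read out with a cell viability assay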
# Description: SANGER: Inhibition of human MCF7 cell growth in a cell viability assay.
# SW1783 = conditions: Homo sapiens, SW1783;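 also: cell growth inhibition measured with a viability assay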
# Description: SANGER: Inhibition of human SW1783 cell growth in a cell viability assay.
# LN-405 = conditions: Homo sapiens, LN-405
# Description: SANGER: Inhibition of human LN-405 cell growth in a cell viability assay.
# MKN-28 = conditions: Homo sapiens, MKN-28;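 also: cell viability assay read-out, IC50 reflects suppression of growth of human MKN-28 cells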
# Description: SANGER: Inhibition of human MKN28 cell growth in a cell viability assay.
# UO-31 = conditions: Homo sapiens, UO-31;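 also: cell viability assay measuring inhibition of cell growth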
# Description: SANGER: Inhibition of human U031 cell growth in a cell viability assay.
# HCT-116 = conditions: Homo sapiens, HCT-116
# Description: SANGER: Inhibition of human HCT-116 cell growth in a cell viability assay.
# CAMA-1 = conditions: Homo sapiens, CAMA-1;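 also: growth inhibition of CAMA-1 cells, read out with a cell viability assay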
# Description: SANGER: Inhibition of human CAMA-1 cell growth in a cell viability assay.
# KYSE-180 = conditions: Homo sapiens, KYSE-180;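 also: growth inhibition of KYSE-180 cells, read out with a cell viability assay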
# Description: SANGER: Inhibition of human KYSE-180 cell growth in a cell viability assay.
# NCI-H292 = conditions: Homo sapiens, NCI-H292;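 also: growth inhibition of NCI-H292 cells, read out with a cell viability assay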
# Description: SANGER: Inhibition of human NCI-H292 cell growth in a cell viability assay.
# NCI-H661 = conditions: Homo sapiens, NCI-H661;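 also: cell viability assay read-out, IC50 being the concentration that inhibits growth of the cells by half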
# Description: SANGER: Inhibition of human NCI-H661 cell growth in a cell viability assay.
# C-33-A = conditions: Homo sapiens, C-33-A;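 also: cell viability assay measuring growth inhibition of C-33-A cells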
# Description: SANGER: Inhibition of human C-33-A cell growth in a cell viability assay.
# COLO-792 = conditions: Homo sapiens, COLO-792
# Description: SANGER: Inhibition of human COLO-792 cell growth in a cell viability assay.
# HuO-3N1 = conditions: Homo sapiens, HuO-3N1;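 also: cell viability readout used to measure how strongly compounds suppress proliferation of human HuO-3N1 cells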
# Description: SANGER: Inhibition of human HuO-3N1 cell growth in a cell viability assay.
# SW-620 = conditions: Homo sapiens, SW-620;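 also: growth inhibition of human SW-620 cells, measured by a cell viability assay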
# Description: SANGER: Inhibition of human SW620 cell growth in a cell viability assay.
# CHL-1 = conditions: Homo sapiens, CHL-1;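 also: cell growth inhibition, read out with a cell viability assay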
# Description: SANGER: Inhibition of human CHL-1 cell growth in a cell viability assay.
# COR-L23 = conditions: Homo sapiens, COR-L23;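 also: cell viability assay measuring how strongly compounds suppress growth of COR-L23 cells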
# Description: SANGER: Inhibition of human COR-L23 cell growth in a cell viability assay.
# SNU-449 = conditions: Homo sapiens, SNU-449
# Description: SANGER: Inhibition of human SNU-449 cell growth in a cell viability assay.
# CAPAN-1 = conditions: Homo sapiens, CAPAN-1;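 also: growth suppression of CAPAN-1 cells, read out by a cell viability assay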
# Description: SANGER: Inhibition of human CAPAN-1 cell growth in a cell viability assay.
# RERF-LC-MS = conditions: Homo sapiens, RERF-LC-MS;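 also: growth inhibition of human RERF-LC-MS cells, read out by a cell viability assay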
# Description: SANGER: Inhibition of human RERF-LC-MS cell growth in a cell viability assay.
# SW1417 = conditions: Homo sapiens, SW1417;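 also: growth inhibition of human SW1417 cells, read out with a cell viability assay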
# Description: SANGER: Inhibition of human SW1417 cell growth in a cell viability assay.
# 8505C = conditions: Homo sapiens, 8505C
# Description: SANGER: Inhibition of human 8505C cell growth in a cell viability assay.
# HEC-1 = conditions: Homo sapiens, HEC-1;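 also: growth inhibition of the cell line, read out with a cell viability assay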
# Description: SANGER: Inhibition of human HEC-1 cell growth in a cell viability assay.
# SiHa = conditions: Homo sapiens, SiHa;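 also: Viability-based readout of growth inhibition in SiHa cells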
# Description: SANGER: Inhibition of human SiHa cell growth in a cell viability assay.
# MIA PaCa-2 = conditions: Homo sapiens, MIA PaCa-2;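 also: growth inhibition of MIA PaCa-2 cells, read out with a cell viability assay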
# Description: SANGER: Inhibition of human MIA-PaCa-2 cell growth in a cell viability assay.
# SNU-423 = conditions: Homo sapiens, SNU-423
# Description: SANGER: Inhibition of human SNU-423 cell growth in a cell viability assay.
# EFO-21 = conditions: Homo sapiens, EFO-21;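 also: growth inhibition of EFO-21 cells measured with a viability assay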
# Description: SANGER: Inhibition of human EFO-21 cell growth in a cell viability assay.
# Hs-578T = conditions: Homo sapiens, Hs-578T
# Description: SANGER: Inhibition of human Hs-578-T cell growth in a cell viability assay.
# A549 = conditions: Homo sapiens, A549;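 also: growth inhibition of A549 cells, read out with a cell viability assay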
# Description: SANGER: Inhibition of human A549 cell growth in a cell viability assay.
smiles,measurement,setting,value
CC1(C)CNc2cc(NC(=O)c3cccnc3NCc3ccncc3)ccc21 [MOTESANIB],IC50,SW756,> 2000 nM
same,IC50,NCI-H2347,> 2000 nM
same,IC50,NUGC-3,> 2000 nM
same,IC50,RCM-1,> 2000 nM
same,IC50,NCI-H522,> 2000 nM
same,IC50,RPMI-7951,> 2000 nM
same,IC50,SW1573,> 2000 nM
same,IC50,NCI-H520,> 2000 nM
same,IC50,PFSK-1,> 2000 nM
same,IC50,HCC1937,> 2000 nM
same,IC50,A 172,> 2000 nM
same,IC50,SCC-9,> 2000 nM
same,IC50,AN3-CA,> 2000 nM
same,IC50,MCF7,> 2000 nM
same,IC50,SW1783,> 2000 nM
same,IC50,LN-405,> 2000 nM
same,IC50,MKN-28,> 2000 nM
same,IC50,UO-31,> 2000 nM
same,IC50,HCT-116,> 2000 nM
same,IC50,CAMA-1,> 2000 nM
same,IC50,KYSE-180,> 2000 nM
same,IC50,NCI-H292,> 2000 nM
same,IC50,NCI-H661,> 2000 nM
same,IC50,C-33-A,> 2000 nM
same,IC50,COLO-792,> 2000 nM
same,IC50,HuO-3N1,> 2000 nM
same,IC50,SW-620,> 2000 nM
same,IC50,CHL-1,> 2000 nM
same,IC50,COR-L23,> 2000 nM
same,IC50,SNU-449,> 2000 nM
same,IC50,CAPAN-1,> 2000 nM
same,IC50,RERF-LC-MS,> 2000 nM
same,IC50,SW1417,> 2000 nM
same,IC50,8505C,> 2000 nM
same,IC50,HEC-1,> 2000 nM
same,IC50,SiHa,> 2000 nM
same,IC50,MIA PaCa-2,> 2000 nM
same,IC50,SNU-423,> 2000 nM
same,IC50,EFO-21,> 2000 nM
same,IC50,Hs-578T,> 2000 nM
same,IC50,A549,> 2000 nM
Cn1cnc2c(F)c(Nc3ccc(Br)cc3Cl)c(C(=O)NOCCO)cc21 [SELUMETINIB],IC50,SW756,> 4000 nM
same,IC50,NCI-H2347,> 4000 nM
same,IC50,NUGC-3,1200 nM
same,IC50,RCM-1,494 nM
same,IC50,NCI-H522,> 4000 nM
same,IC50,RPMI-7951,> 4000 nM
same,IC50,SW1573,> 4000 nM
same,IC50,NCI-H520,> 4000 nM
same,IC50,PFSK-1,> 4000 nM
same,IC50,HCC1937,> 4000 nM
same,IC50,SCC-9,> 4000 nM
same,IC50,AN3-CA,> 4000 nM
same,IC50,MCF7,> 4000 nM
same,IC50,SW1783,> 4000 nM
same,IC50,LN-405,> 4000 nM
same,IC50,HCT-116,1060 nM
same,IC50,CAMA-1,> 4000 nM
same,IC50,KYSE-180,> 4000 nM
same,IC50,NCI-H292,1120 nM
same,IC50,NCI-H661,> 4000 nM
same,IC50,C-33-A,> 4000 nM
same,IC50,COLO-792,1190 nM
same,IC50,HuO-3N1,> 4000 nM
same,IC50,SW-620,302 nM
same,IC50,CHL-1,> 4000 nM
same,IC50,COR-L23,3960 nM
same,IC50,SNU-449,> 4000 nM
same,IC50,CAPAN-1,> 4000 nM
same,IC50,RERF-LC-MS,> 4000 nM
same,IC50,SW1417,> 4000 nM
same,IC50,8505C,> 4000 nM
same,IC50,HEC-1,> 4000 nM
same,IC50,SiHa,> 4000 nM
same,IC50,MIA PaCa-2,898 nM
same,IC50,SNU-423,> 4000 nM
same,IC50,EFO-21,3190 nM
same,IC50,Hs-578T,> 4000 nM
same,IC50,A549,214 nM
CC(C)CCN1c2nc(Nc3cc(F)c(O)c(F)c3)ncc2N(C)C(=O)C1C (stereo unspecified),IC50,SW756,> 5000 nM
same,IC50,NCI-H2347,> 5000 nM
same,IC50,NUGC-3,> 5000 nM
same,IC50,RCM-1,> 5000 nM
same,IC50,NCI-H522,> 5000 nM
same,IC50,RPMI-7951,3400 nM
same,IC50,SW1573,> 5000 nM
same,IC50,NCI-H520,> 5000 nM
same,IC50,PFSK-1,> 5000 nM
same,IC50,HCC1937,> 5000 nM
same,IC50,A 172,517 nM
same,IC50,SCC-9,> 5000 nM
same,IC50,AN3-CA,> 5000 nM
same,IC50,MCF7,> 5000 nM
same,IC50,SW1783,> 5000 nM
same,IC50,LN-405,> 5000 nM
same,IC50,MKN-28,> 5000 nM
same,IC50,UO-31,> 5000 nM
same,IC50,HCT-116,> 5000 nM
same,IC50,CAMA-1,> 5000 nM
same,IC50,KYSE-180,> 5000 nM
same,IC50,NCI-H292,1460 nM
same,IC50,NCI-H661,> 5000 nM
same,IC50,C-33-A,> 5000 nM
same,IC50,COLO-792,> 5000 nM
same,IC50,HuO-3N1,> 5000 nM
same,IC50,SW-620,> 5000 nM
same,IC50,CHL-1,1960 nM
same,IC50,COR-L23,4740 nM
same,IC50,SNU-449,> 5000 nM
same,IC50,CAPAN-1,> 5000 nM
same,IC50,RERF-LC-MS,> 5000 nM
same,IC50,SW1417,> 5000 nM
same,IC50,8505C,4460 nM
same,IC50,HEC-1,> 5000 nM
same,IC50,SiHa,> 5000 nM
same,IC50,MIA PaCa-2,4360 nM
same,IC50,SNU-423,> 5000 nM
same,IC50,EFO-21,> 5000 nM
same,IC50,Hs-578T,> 5000 nM
same,IC50,A549,1310 nM
CCN(CC)CCCCNc1ncc2cc(-c3cc(OC)cc(OC)c3)c(NC(=O)NC(C)(C)C)nc2n1 [PD-173074],IC50,SW756,> 2000 nM
same,IC50,NCI-H2347,> 2000 nM
same,IC50,NUGC-3,> 2000 nM
same,IC50,RCM-1,> 2000 nM
same,IC50,NCI-H522,> 2000 nM
same,IC50,RPMI-7951,> 2000 nM
same,IC50,SW1573,> 2000 nM
same,IC50,NCI-H520,> 2000 nM
same,IC50,PFSK-1,> 2000 nM
same,IC50,HCC1937,> 2000 nM
same,IC50,A 172,1700 nM
same,IC50,SCC-9,> 2000 nM
same,IC50,AN3-CA,401 nM
same,IC50,MCF7,> 2000 nM
same,IC50,SW1783,> 2000 nM
same,IC50,LN-405,> 2000 nM
same,IC50,MKN-28,> 2000 nM
same,IC50,UO-31,> 2000 nM
same,IC50,HCT-116,> 2000 nM
same,IC50,CAMA-1,> 2000 nM
same,IC50,KYSE-180,> 2000 nM
same,IC50,NCI-H292,> 2000 nM
same,IC50,NCI-H661,> 2000 nM
same,IC50,C-33-A,> 2000 nM
same,IC50,COLO-792,> 2000 nM
same,IC50,HuO-3N1,547 nM
same,IC50,SW-620,> 2000 nM
same,IC50,CHL-1,> 2000 nM
same,IC50,COR-L23,> 2000 nM
same,IC50,SNU-449,> 2000 nM
same,IC50,CAPAN-1,> 2000 nM
same,IC50,RERF-LC-MS,> 2000 nM
same,IC50,SW1417,> 2000 nM
same,IC50,8505C,> 2000 nM
same,IC50,HEC-1,> 2000 nM
same,IC50,SiHa,> 2000 nM
same,IC50,MIA PaCa-2,> 2000 nM
same,IC50,SNU-423,> 2000 nM
same,IC50,EFO-21,> 2000 nM
same,IC50,Hs-578T,> 2000 nM
same,IC50,A549,> 2000 nM
